Assay results published in US7592341B2, “Peptide-enhanced corneal drug delivery” (Kansas State University Research Foundation, priority 2004, dated 2009).
No end group written: not given here.

Assays:
MDCK monolayers = test: Methotrexate uptake in epithelial monolayer experiments; format: cell-based, canine; conditions: peptide washout experiments in culture; LC-ESI-MS
Description: This example followed the procedures of the monolayer experiments of Example 1 in order to test the uptake of fluorescently labeled methotrexate (MTX) and MTX that was not fluorescently labeled. Enhanced uptake of the fluorescently labeld MTX was not observed during co-incubation due to adverse interactions between the peptide and the modified drugs. However, in peptide washout experiments in culture, MTX uptake increased by ten-fold. Measurement of the unlabeled MTX was performed using LC-ESI-MS and a standard MTX amount for calibration and comparison purposes.

corneal epithelium [1] = test: Electron microscopy with ruthenium red of treated corneas (tight junction opening, morphology); conditions: 30 minute preincubation samples; for corneal epithelial morphology by EM: 200 μM peptide or 0.01% BAC
Description: In order to document the in situ opening of the tight junctions, peptide treated corneas were chemically fixed at the end of a dye transport assay for morphology studies. The control and test samples were treated with the dye ruthenium red, which binds to the plasma membrane of epithelium and cannot pass the tight junctions. […] As a control, the ophthalmic preservative benzalkonium chloride (BAC) was used in place of the peptide. […] NC-1059 (Seq. ID No. 1) was compared to BAC in a paired cornea experiment: 0.01% BAC solution and 200 μM ml of the peptide were incubated individually for either 15 or 30 minutes in the test chambers. The solutions were washed. 5 mL of BSS plus was added to both chambers and then spiked with 2 mL of CF. Sample aliquots were taken (100 μL) every half hour from the endothelial chamber for 6 hours. […] At the end of the experiment treated corneas were tested for residual internalized CF and then fixed for morphological analysis by EM. […] An EM study using ruthenium red to highlight the plasma membrane and grid staining to increase the contrast was performed on the 30 minute samples used to generate FIG. 5.

corneal epithelium [2] = conditions: rabbit, in vivo
Description: A series of in vivo corneal epithelial permeability experiments in unanaesthetized rabbits was also conducted. NC-1059 (Seq. ID No. 1) was prepared in BSS (200 μM) and placed inside the lower eyelid of one eye with the other eye receiving an equal amount of BSS alone. The solutions were held in place for 3 minutes and then washed with BSS. After the indicated incubation periods, both eyes received 300 μM NaF or CF and the dye was kept in place for 3 or 5 minutes. After the contact period the eyes were washed with 40 mL of BSS solution. Total uptake was measured for both the control and treated eyes with an OcuMetrics, Ocular Fluorophotometer. The fold changes between the peptide treated and untreated eyes were calculated (FIG. 7). […] It would also appear that adding the dye immediately after peptide exposure results in the highest permeation. […] The reduced uptake at the 6-hour time point documents the transient effects of the peptide in vivo. This transient effect has been observed under all assay conditions: in vitro, in situ and in vivo. In the final column, the fold increase is only 1.7±1.1 (n=2). Viewed alone, this fold increase is some-what misleading because the net amount of more hydrophobic NaF taken up in eyes is higher (7.8-fold) than with the CF dye.

[3] = tested on: small intestine epithelia; conditions: reduction in epithelial resistance; cited from earlier work
rabbit cornea = test: Ex vivo transcorneal dye transport and corneal dye uptake in isolated rabbit cornea (perfusion chamber); conditions: for residual internalized CF in cornea: washed, 200 μM peptide or 0.01% BAC, FIG. 6
Description: For rabbit in vitro studies, corneas were obtained from eyes of New Zealand White rabbits weighing 5.0 to 5.5 kg, which were anesthetized and then killed by intracardiac injection of sodium pentobarbital (97.2 mg/kg). […] For a given pair of eyes, the epithelium was scraped from one of the corneas with a scalpel blade; on the opposite eye the epithelium was left intact. […] This method prevented trauma to the corneal epithelium and distortion of the corneal curvature during clamping in the acrylic-block perfusion system. The scleral rim serves as a gasket and permits the cornea to be suspended within the corneal ring.
The retina and pigment epithelium were removed and the cornea was clamped in the corneal holder. The exposed surface area for diffusion was 1.2 cm^2 for the cornea and 1.1 cm^2 for the sclera. The perfusion chamber was made of acrylic and placed in a water jacket to maintain the temperature of the cornea and perfusion medium at 35° C. A volume of 6 mL of balanced salt solution with oxidized glutathione (BBS Plus, Alcon Laboratories Inc, Fort Worth, Tex.) at pH 7.4 was placed in the endothelial chamber. The peptides were added to the balanced salt solution with oxidized glutathione at a concentration of 1 mM. Six milliliters of each solution was added to the epithelial chamber. […] Serial 0.5-mL samples were removed from each reservoir at 30-minute intervals, and after three hours at the termination of the permeability study, the remaining 3 mL was removed. […] The corneal permeability (P) was obtained by taking into account the volume (6 mL) of the endothelial chamber and the corneal area (square centimeters), as follows: P=kin endothelial chamber volume/corneal area.
Numerous paired sets of experiments were conducted using each of the two dyes. The paired experiments included a control cornea obtained from one of the eyes of a rabbit, which was bathed in the BSS+ buffer and given 100 μL of water at the start of the experiment. In the test cornea, from the second eye of the same rabbit, 100 μL of peptide was added at time zero to produce a 150-200 μM peptide solution in BSS+. Both the water and the peptide additions were made on the apical surface of the cornea. After 20-30 minutes of incubation, dye was added to the apical bathing solution (final concentration 300 μM of dye) and allowed to remain in contact with the cornea for 6 hours. […] At 30-minute intervals, 75-100 μL aliquots were removed from the endothelial bathing chamber and the concentration of the transported dye determined. In some later experiments the corneal surfaces were rinsed 2-3 times with fresh BSS+ (wash out) to remove unbound peptide prior to the addition of the dye. The peptide is added to the apical bathing chamber.

corneal epithelium [4] = conditions: known; cited from earlier work

Molecule: CN(Cc1cnc2nc(N)nc(N)c2n1)c1ccc(C(=O)N[C@@H](CCC(=O)O)C(=O)O)cc1 [MTX, methotrexate]
- increase of MTX uptake (MDCK monolayers): ten-fold

Molecule: KKKKAARVGLGITTVLVTTIGLGVRAA [NC-1059]
- corneal epithelial morphology by EM (corneal epithelium [1]): normal healthy epithelial morphology

Molecule: Sodium Carboxy Fluorescein [NaF]
- net amount of NaF taken up in eyes relative to CF dye (corneal epithelium [2]): 7.8 fold

Molecule: ZOT: zonula occludens toxin of Vibrio cholerae, 399 a.a.
- onset of effects [3]: < 20 min

Molecule: benzalkonium chloride [BAC]
- induced transport rates for CF in paired corneas, BAC vs NC-1059 (rabbit cornea; 15 min preincubation, FIG. 5A): appear identical
- residual internalized CF in cornea (rabbit cornea; 15 min preincubation): 27.8 µg
- residual internalized CF in cornea (rabbit cornea; 30 min preincubation): 40.7 µg
- induced CF translocation in paired corneas, BAC vs NC-1059 (rabbit cornea; 30 minutes preincubation, FIG. 5B): begins to promote increased CF translocation after the three-hour test point
- concentration above which BAC causes cellular damage (corneal epithelium [4]): greater than 0.005%
- depth of ruthenium red staining of multilayered corneal epithelium (corneal epithelium [1]): 4-5 layers
- corneal epithelial morphology by EM (corneal epithelium [1]): altered morphology with some cells appearing swollen
